The results in this text go back to patent US9663465B2, “Acetylcholinesterase inhibitors and promnesiant serotonin 5-HT4 receptor agonists, their methods of preparation and the pharmaceutical compositions containing the same” (UNIVERSITE DE CAEN, priority 2013, dated 2017).

Like-named read-outs stand apart in the source and are kept apart here.

The target in assay [1] is human acetylcholinesterase (Homo sapiens (Human), UniProt P22303). As to the kind of experiment: biochemical. It is filed as biochemical. The conditions noted are these: acetylcholinesterase from human erythrocytes.
Experimental: 100 μL of a 0.3 mM 5,5-dithiobis(2-nitrobenzoic acid) (DTNB) solution in a pH 7.4 phosphate buffer are introduced into a 96-well plate, followed by 50 μL of compound to be tested in solution in DMSO and 50 μL of enzyme solution. After 5 min of preincubation, the reaction is initiated by injecting 50 μL of 10 mM acetylthiocholine iodide solution. […] Donepezil is used as a reference product.
The next assay concerns the target 5-HT4 receptors (Cavia porcellus (Guinea pig), UniProt O70528). As to the kind of experiment: Affinity as regards 5-HT4 receptors: competition against [3H]-GR113808 on striatal membranes. It is filed as binding.
The target in assay [2] is peripheral site of eeAChE (Electrophorus electricus (Electric eel) (Gymnotus electricus), UniProt O42275). It counts as binding.
Experimental: When propidium diiodide binds to the peripheral site of AChE, it produces an increase in fluorescence which can be used as proof of its binding to the enzyme. Fluorescence measurements are made in 200 μL of solution in 96-well plates using a Tecan Infinite M2000 microplate reader. […] 50 μL of micromolar solution of propidium diiodide are added before measuring fluorescence. […] Each test is repeated at least three times.
In the next assay the target is 5-HT4 receptor (Homo sapiens (Human), UniProt Q13639). As to the kind of experiment: Agonist nature as regards the 5-HT4 receptor: accumulation of intracellular cyclic AMP in stably transfected CHO cells. It is filed as cell-based. The conditions noted are these: percentage of agonist effect in relation to serotonin.
For another assay, the system named is male NMRI mice. The assay is described as follows: Object recognition test. It is filed as in vivo. To be noted: intraperitoneal, 30 minutes before the acquisition session.
Where [3] appears, read: 10^-5 M solution of compound, eeAChE, propidium diiodide fluorescence.

Sequence of 5-HT4 receptor (Q13639 whole entry): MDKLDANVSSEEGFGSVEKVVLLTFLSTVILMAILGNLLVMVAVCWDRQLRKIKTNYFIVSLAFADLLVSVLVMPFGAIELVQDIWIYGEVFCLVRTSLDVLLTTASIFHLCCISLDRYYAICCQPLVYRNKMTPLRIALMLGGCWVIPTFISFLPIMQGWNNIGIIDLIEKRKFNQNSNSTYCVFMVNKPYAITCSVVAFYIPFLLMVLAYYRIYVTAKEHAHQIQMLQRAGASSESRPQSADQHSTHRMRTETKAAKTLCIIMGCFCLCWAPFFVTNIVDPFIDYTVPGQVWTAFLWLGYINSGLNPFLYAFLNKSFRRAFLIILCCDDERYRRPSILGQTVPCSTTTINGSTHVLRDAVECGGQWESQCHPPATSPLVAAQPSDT
Sequence of peripheral site of eeAChE (O42275 whole entry, looked up): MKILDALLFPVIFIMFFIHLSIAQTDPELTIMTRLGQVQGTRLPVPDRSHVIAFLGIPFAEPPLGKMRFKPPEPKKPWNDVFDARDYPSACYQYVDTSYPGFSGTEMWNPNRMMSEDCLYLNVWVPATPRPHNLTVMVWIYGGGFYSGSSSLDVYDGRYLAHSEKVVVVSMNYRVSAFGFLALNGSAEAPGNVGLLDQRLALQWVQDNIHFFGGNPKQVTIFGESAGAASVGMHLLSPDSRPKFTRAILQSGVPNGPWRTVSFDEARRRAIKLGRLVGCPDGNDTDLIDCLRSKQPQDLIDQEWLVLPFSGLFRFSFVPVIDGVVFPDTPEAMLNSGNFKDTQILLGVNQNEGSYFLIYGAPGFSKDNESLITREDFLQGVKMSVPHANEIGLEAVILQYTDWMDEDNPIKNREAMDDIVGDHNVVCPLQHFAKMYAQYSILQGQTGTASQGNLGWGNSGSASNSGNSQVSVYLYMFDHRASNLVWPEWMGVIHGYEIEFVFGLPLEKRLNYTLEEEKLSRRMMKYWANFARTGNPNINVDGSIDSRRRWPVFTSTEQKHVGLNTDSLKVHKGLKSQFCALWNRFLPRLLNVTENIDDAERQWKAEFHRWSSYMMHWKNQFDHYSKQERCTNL
Sequence of 5-HT4 receptors (O70528 whole entry): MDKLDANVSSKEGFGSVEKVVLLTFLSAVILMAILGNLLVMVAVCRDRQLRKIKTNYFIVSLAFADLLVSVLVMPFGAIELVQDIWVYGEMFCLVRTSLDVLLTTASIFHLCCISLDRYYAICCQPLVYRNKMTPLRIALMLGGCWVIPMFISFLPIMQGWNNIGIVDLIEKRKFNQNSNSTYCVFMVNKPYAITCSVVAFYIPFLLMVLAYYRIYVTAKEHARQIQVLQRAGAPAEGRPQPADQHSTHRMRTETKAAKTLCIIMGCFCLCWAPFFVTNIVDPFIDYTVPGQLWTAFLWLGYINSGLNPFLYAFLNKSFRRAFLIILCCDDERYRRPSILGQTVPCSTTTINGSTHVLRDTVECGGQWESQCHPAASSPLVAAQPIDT
Sequence of human acetylcholinesterase (P22303 32-574 with tags or gaps limits assumed): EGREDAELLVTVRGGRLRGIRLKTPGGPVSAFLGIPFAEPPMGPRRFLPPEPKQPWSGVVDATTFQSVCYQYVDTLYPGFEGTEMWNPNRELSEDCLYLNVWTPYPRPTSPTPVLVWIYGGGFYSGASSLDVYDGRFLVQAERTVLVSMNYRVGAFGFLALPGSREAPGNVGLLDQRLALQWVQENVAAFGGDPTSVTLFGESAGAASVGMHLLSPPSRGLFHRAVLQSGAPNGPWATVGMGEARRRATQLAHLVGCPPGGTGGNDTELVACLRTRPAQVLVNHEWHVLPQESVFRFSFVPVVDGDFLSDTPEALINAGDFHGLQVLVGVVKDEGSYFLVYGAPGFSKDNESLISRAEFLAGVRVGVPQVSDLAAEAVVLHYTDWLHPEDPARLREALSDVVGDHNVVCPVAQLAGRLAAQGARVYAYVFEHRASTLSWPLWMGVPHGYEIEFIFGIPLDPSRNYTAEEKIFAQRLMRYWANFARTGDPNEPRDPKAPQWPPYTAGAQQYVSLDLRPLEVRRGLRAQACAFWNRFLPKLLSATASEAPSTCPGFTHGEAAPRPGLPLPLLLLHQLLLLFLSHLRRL
Experimental for male NMRI mice: The tests are performed using male NMRI mice of around 3 months old at the time of the tests.
The object recognition test is based on the spontaneous preference of rodents for novelty, without bringing food deprivation or electric shock into play.
The device comprises a square PVC enclosure (33×33×20 cm, illuminated at 10 lux in the center) with black surfaces. The test is performed in 2 phases: one habituation phase, allowing the animals to become habituated to the test environment (enclosure, room, experimenter), the other a memory performance assessment phase. A camera is positioned above the device and connected to a video-tracking system (ViewPoint®). During the behavioral tests, the experimenter is not present in the experimentation room but remains in an adjacent room that houses the video-tracking system.
After a habituation phase (Day 1, individual exposure for 5 minutes to the open-field with no objects), the memory performance assessment phase begins on the 2nd day and is made up of 2 sessions, one the presentation session and the other the test session. […] The exploration time of each object, A1 and A2 respectively, as well as the time required to achieve the exploration criterion are measured. […] The time required to achieve the exploration criterion as well as the exploration time of the new object are measured and the latter is compared to the chance level (15 s). […]

As a reminder, the IC50 is the concentration that gives 50% inhibition. What is called Ki is the dissociation constant of the complex between target and ligand, obtained from inhibition or displacement. Consider `CCCCN1CCC(CCC(=O)c2cc(Br)c(N)cc2OC)CC1` [Compound 2, 1-(4-amino-5-bromo-2-methoxyphenyl)-3-[1-butyl-4-piperidyl]propan-1-one], for which, in assay [1], the IC50 stood at 445 nM. The compound further displayed a Ki on 5-HT4 receptors of 8.9 nM.
Take `COc1cc(N)c(F)cc1C(=O)CCC1CCN(CC2CCCCC2)CC1` [Compound 5, 1-(4-amino-5-fluoro-2-methoxyphenyl)-3-[1-(cyclohexylmethyl)-4-piperidyl]propan-1-one]: the “% Propidium Displacement” value in assay [2] (setting [3]) is 22%. The compound further displayed an Agonistic effect % at 5-HT4 receptor of 16%.
The matching figures for `COc1cc(N)c(Cl)cc1C(=O)CCC1CCN(CC2CCCC2)CC1` [Compound 8, 1-(4-amino-5-chloro-2-methoxyphenyl)-3-[1-(cyclopentylmethyl)-4-piperidyl]propan-1-one]: 20% and 12%.
In the case of `COc1cc(N)c(Cl)cc1C(=O)CCC1CCN(CC2CCCCC2)CC1` [Compound 9, 1-(4-amino-5-chloro-2-methoxyphenyl)-3-[1-(cyclohexylmethyl)-4-piperidyl]propan-1-one], the “% Propidium Displacement” value in assay [2] (setting [3]) was 22%. Also, in the assay on male NMRI mice, the “dose of maximum effect on object recognition performance” value worked out at 0.3 mg/kg. Also, the “object recognition performance compared to the control batch” value with male NMRI mice (24 hours intersession) is on record as “improvement in object recognition performance compared to the control batch”. Besides, on 5-HT4 receptor, the Agonistic effect % amounted to 22%.
Regarding `COc1cc(N)c(Cl)cc1C(=O)CCC1CCN(CC2CCCCCC2)CC1` [Compound 12, 1-(4-amino-5-chloro-2-methoxyphenyl)-3-[1-(cycloheptylmethyl)-4-piperidyl]propan-1-one], in assay [2] (setting [3]), the “% Propidium Displacement” value was 20%. Also, the Agonistic effect % on 5-HT4 receptor was 21%.
For `COc1cc(N)c(Br)cc1C(=O)CCC1CCN(CC2CCCCC2)CC1` [Compound 14, 1-(4-amino-5-bromo-2-methoxyphenyl)-3-[1-(cyclohexylmethyl)-4-piperidyl]propan-1-one], the “% Propidium Displacement” value in assay [2] is reported as 20%.
Same read-out and setting: the same measure for `COc1cc(N)c(Cl)cc1C(=O)CCC1CCN(CCC2CCCCC2)CC1` [Compound 16, 1-(4-amino-5-chloro-2-methoxyphenyl)-3-[1-(cyclohexylethyl)-4-piperidyl]propan-1-one]: 21%.
For the compound `COc1cc(N)c(Cl)cc1C(=O)NCC1CCN(CC2CCCCC2)CC1` [Compound 17, 4-amino-5-chloro-[[1-(cyclohexylmethyl)-4-piperidyl]methyl]-2-methoxybenzamide], the 50% inhibitory concentration (IC50) in assay [1] is 3730 nM. Moreover, at 5-HT4 receptors (0.1 nM [3H]-GR113808, guinea pig striatal membranes, read-out: Ki), the Ki worked out at 2.3 nM.
Consider `Nc1cc(OCCF)c(C(=O)CCC2CCN(CC3CCCCC3)CC2)cc1Cl` [Compound 23, 1-[4-amino-5-chloro-2-(2-fluoroéthoxy)phenyl]-3-[1-(cyclohexylmethyl)-4-piperidyl]propan-1-one], for which the “% Propidium Displacement” value in assay [2] (setting [3]) amounted to 22%.
At 5-HT4 receptor, `COCCCN1CCC(NC(=O)c2cc(Cl)c(N)c3c2OCC3)CC1` [prucalopride, reference compound] yielded an Agonistic effect % of 100%.
